# Data from PMC7198601, “Side chain effect in the modulation of αvβ3/α5β1 integrin activity via clickable isoxazoline-RGD-mimetics: development of molecular delivery systems” (Scientific Reports, 2020).
# Columns and labels:
# selected integrins = assay: Effect of the aromatised degradation product on the activity of selected integrins
# Protocol: (§1) LC-MS injections were performed after 30 min from the preparation of the samples and then after each 1.5 hours, following the experiments for 14 h (Fig. 4). […] As a consequence of the spontaneous aromatization of A, also an increasing amount of B was observed after a short period. The aromatised form B was tested to evaluate its effect on the activity of selected integrins but, as consequence of the absence of a crucial pharmacophore, it was not active. This behaviour doesn’t represent a big issue since strong basic conditions are quite unusual in physiological environment. In fact under stress conditions with a large excess of base, the decomposition of 17b to A occurred in few minutes.
# [1] = Stability in water at neutral, basic and acidic pH (LC-MS); assay type: physicochemical; details: for loss of product: water, after several hours
# Protocol: as §1
# (§2) Figure 4 Stability of 17b in neutral, basic, acidic and physiological conditions and its possible degradation pathway. Conditions: 17b (0.1 mmol) in 300 µl of solvent (water or bovine serum). 5 eq of LiOH·H2O or HCl 1 M were added.
# [2] = system: α5β1 integrin-mediated phosphorylation of ERK1/2; assay: α5β1 integrin-mediated ERK1/2 phosphorylation in K562 cells (Western blot); assay type: cell-based, human; details: K562 cells preincubated with compound 10^−7–10^−9 M, then plated on fibronectin
# Protocol: The mechanism by which components of extracellular matrix generate intracellular signalling through integrins requires indeed an increased phosphorylation of cytoplasmatic second messengers. Phosphorylation of ERK1/2 plays a central role in fibronectin-mediated survival signalling through integrins: in fact, cell adhesion activates ERK1/2 by binding of α5β1 integrins at the cell surface to extracellular matrix proteins such as fibronectin. The experiment was performed by serum-starving K562 cells in RPMI-1640 containing 1% FBS for 16 h; thereafter, they were preincubated with compound 17b, 24 (10^−7–10^−9 M) or the vehicle for 60 minutes and then plated for 60 minutes on fibronectin.
# Figure 2 (a) Cropped blots related to the effect of compounds 17b and 24 on α5β1 integrin-mediated phosphorylation of ERK1/2 in K562 cells. Cells were serum-starved in RPMI-1640 containing 1% FBS for 16 h; then cells were preincubated with different concentrations of the antagonist 17b (10^−7–10^−9 M) or its vehicle for 1 h in suspension and then were allowed to adhere for 1 h on fibronectin (FN). […] Thereafter cells were lysed and lysates were analysed in Western blot using an antibody directed against phosphorylated ERK1/2 (pERK1/2) or total ERK1/2 (totERK1/2). […]
# K562 cells were incubated in RPMI-1640 with 1% FBS for 16 h. […] Digital images were acquired and analyzed following previously reported methods.
# α5β1 integrin [3] = target: T1, α5β1 integrin (Homo sapiens, UniProt P05556+P08648); assay: Cell adhesion assay: K562 cells to immobilized fibronectin (α5β1 integrin-mediated)
# T1 sequence (P08648 42-894 limits assumed): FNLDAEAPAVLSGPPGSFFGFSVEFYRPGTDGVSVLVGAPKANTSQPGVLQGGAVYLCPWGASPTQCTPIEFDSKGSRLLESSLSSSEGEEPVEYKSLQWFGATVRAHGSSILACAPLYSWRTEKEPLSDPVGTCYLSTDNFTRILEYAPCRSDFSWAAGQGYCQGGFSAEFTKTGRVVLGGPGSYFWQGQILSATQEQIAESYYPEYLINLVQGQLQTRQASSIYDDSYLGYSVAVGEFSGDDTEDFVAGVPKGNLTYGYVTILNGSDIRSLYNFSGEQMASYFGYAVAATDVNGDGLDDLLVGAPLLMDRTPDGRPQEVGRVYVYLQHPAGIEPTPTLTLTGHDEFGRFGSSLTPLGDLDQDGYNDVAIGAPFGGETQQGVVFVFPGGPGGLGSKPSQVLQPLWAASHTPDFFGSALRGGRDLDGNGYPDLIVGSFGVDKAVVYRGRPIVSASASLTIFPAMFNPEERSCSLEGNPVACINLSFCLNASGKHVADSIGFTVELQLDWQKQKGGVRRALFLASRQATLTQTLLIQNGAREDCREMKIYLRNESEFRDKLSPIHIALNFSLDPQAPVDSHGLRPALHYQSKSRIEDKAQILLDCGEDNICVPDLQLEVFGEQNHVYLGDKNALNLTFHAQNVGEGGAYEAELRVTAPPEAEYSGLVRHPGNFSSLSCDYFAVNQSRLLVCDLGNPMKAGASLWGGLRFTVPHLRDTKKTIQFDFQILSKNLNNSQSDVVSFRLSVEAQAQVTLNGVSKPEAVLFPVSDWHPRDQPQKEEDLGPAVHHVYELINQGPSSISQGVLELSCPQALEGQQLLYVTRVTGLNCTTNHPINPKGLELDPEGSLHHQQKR
# T1 sequence (P08648 895-1049 partner limits assumed): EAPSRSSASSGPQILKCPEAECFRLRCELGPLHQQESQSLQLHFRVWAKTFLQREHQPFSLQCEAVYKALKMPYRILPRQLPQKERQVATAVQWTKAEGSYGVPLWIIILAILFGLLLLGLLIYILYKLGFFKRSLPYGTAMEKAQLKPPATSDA
# T1 sequence (P05556 21-798): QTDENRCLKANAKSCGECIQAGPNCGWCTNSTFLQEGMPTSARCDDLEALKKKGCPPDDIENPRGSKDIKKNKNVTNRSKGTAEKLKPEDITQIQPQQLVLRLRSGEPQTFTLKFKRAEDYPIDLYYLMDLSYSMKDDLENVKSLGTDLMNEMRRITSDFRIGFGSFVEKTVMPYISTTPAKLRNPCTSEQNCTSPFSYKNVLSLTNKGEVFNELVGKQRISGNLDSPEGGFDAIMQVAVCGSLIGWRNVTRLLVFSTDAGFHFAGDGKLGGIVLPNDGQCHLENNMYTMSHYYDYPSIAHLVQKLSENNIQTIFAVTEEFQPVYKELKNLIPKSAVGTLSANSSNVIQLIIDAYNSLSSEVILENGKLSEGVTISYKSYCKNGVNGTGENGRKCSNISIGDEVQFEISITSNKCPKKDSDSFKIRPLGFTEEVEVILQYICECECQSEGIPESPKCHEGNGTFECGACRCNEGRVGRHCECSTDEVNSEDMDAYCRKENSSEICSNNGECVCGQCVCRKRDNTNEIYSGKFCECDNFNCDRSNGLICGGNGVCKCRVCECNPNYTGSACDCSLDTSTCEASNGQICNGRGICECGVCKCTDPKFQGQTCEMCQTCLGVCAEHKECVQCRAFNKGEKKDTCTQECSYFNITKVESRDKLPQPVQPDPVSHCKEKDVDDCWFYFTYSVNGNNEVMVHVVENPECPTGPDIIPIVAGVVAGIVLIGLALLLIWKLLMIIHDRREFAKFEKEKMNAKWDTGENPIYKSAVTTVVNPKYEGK
# Protocol: (§8) The ability of the synthesized racemic ligands to inhibit the adhesion of K562 cells (human erythroleukemic cells, expressing α5β1 integrin) or SK-MEL-24 cells (human malignant melanoma cells, expressing αvβ3 integrin) to immobilized fibronectin was evaluated[29]. […] In these experiments, the cells were seeded onto plates coated with fibronectin and allowed to adhere before quantitation of the number of adherent cells, in presence of increasing concentrations of the compounds.
# (§9) SK-MEL-24 (American Tissue Culture Collection, ATCC, Rockville, MD) were routinely grown in minimum essential medium (MEM, Cambrex, Walkersville, MD) supplemented with 10% fetal bovine serum (FBS), nonessential amino acids, and sodium pyruvate. K-562 (ATCC, Rockville, MD) were maintained as a stationary suspension culture in RPMI-1640 and L-glutamine with 10% FBS (Invitrogen (Carlsbad, CA). Cells were kept at 37 °C in a 5% CO2 humidified atmosphere. Forty hours before experiments, K-562 were treated with 25 ng/mL PMA (Sigma-Aldrich SRL, Milan, Italy) to induce differentiation and to increase expression of cell surface antigens[50].
# (§10) Plates (96 wells) (Corning Costar, Celbio, Milan,Italy) were coated by passive adsorption with fibronectin (10 µg/mL) or poly-L-lysine (0.002%) (Sigma-Aldrich SRL) overnight at 4 °C. Cells were counted with a haemocytometer and pre-incubated with different concentrations of each compound or with the vehicle (methanol) for 30 min at room temperature to reach a ligand-receptor equilibrium. Stock solutions (10^–2 M) of the assayed compounds were prepared in phosphate-buffered saline (PBS). […] This product is a chromogenic substrate for β-N-acetylglucosaminidase that is transformed in 4-nitrophenol whose absorbance can be measured at 405 nm. As previously described[51], there is a linear correlation between absorbance and enzymatic activity. Therefore, it is possible to identify the number of adherent cells among treated wells, interpolating the absorbance values of unknowns in a calibration curve. The reaction was blocked by addition of 100 µL of a stopping solution [50 µM glycine and 5 µM EDTA (pH 10.4)], and the plates were read in an EnSpire Multimode Plate Reader (PerkinElmer, Waltham, MA, USA). Experiments were carried out in quadruplicate and repeated at least three times. Data analysis and IC50/EC50 values were calculated using Graph-Pad Prism 5.0 (GraphPad Software, San Diego, CA).
# αvβ3 integrin = αvβ3 integrin (Homo sapiens, UniProt P05106+P06756); assay: Cell adhesion assay: SK-MEL-24 cells to immobilized fibronectin (αvβ3 integrin-mediated)
# αvβ3 integrin, sequence (P06756 31-889 limits assumed): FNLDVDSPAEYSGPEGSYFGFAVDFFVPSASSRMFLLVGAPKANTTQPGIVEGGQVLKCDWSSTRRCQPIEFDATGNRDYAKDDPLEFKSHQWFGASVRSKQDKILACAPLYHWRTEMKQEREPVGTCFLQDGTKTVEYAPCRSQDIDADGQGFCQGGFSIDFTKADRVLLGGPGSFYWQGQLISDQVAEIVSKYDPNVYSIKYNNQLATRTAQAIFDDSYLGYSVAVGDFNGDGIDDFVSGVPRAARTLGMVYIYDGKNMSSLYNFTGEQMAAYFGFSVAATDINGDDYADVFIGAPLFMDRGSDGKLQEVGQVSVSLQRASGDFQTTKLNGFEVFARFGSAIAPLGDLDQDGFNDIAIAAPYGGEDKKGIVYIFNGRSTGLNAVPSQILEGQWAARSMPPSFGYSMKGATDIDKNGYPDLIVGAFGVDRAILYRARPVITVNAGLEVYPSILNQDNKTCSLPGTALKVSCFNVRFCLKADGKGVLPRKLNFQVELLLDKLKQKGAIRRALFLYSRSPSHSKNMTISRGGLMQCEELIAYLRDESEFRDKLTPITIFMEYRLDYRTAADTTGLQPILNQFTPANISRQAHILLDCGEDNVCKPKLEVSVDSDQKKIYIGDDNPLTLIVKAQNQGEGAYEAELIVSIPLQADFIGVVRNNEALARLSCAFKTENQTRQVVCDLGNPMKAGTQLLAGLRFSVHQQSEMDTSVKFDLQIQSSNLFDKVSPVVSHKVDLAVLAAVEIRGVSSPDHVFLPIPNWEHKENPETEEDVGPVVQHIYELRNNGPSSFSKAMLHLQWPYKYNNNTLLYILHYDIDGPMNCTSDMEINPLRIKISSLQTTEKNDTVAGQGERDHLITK
# αvβ3 integrin, sequence (P06756 891-1048 partner limits assumed): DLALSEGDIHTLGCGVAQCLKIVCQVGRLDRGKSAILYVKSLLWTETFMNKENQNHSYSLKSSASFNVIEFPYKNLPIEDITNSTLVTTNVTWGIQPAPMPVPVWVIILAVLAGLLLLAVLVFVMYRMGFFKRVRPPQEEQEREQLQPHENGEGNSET
# αvβ3 integrin, sequence (P05106 27-788): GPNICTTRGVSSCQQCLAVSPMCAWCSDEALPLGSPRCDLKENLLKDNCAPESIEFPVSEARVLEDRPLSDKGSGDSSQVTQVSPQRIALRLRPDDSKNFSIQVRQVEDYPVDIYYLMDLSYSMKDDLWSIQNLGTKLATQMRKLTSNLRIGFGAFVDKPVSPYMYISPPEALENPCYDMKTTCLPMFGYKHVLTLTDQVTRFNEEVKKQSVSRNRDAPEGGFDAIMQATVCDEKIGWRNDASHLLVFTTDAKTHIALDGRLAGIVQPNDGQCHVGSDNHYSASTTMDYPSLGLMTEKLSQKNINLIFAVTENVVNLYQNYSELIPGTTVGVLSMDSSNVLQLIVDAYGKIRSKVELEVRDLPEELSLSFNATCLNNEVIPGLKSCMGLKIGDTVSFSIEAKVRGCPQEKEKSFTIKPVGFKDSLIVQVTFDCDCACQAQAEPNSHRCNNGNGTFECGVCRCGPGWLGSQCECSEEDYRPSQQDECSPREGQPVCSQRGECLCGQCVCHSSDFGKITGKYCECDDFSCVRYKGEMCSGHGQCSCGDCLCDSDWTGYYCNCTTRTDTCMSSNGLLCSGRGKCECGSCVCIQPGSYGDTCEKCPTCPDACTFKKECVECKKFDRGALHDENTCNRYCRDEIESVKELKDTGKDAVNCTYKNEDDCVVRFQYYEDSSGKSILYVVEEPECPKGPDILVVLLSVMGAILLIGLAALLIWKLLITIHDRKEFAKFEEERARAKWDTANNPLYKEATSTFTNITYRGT
# Protocol: as §8, §9, §10
# α5β1 integrin [4] = target: T1, α5β1 integrin; assay: α5β1 integrin internalization by confocal microscopy in HEK293 + α5-EGFP cells; assay type: cell-based; details: compound 1 µM pre-incubated before fibronectin 10 µg/mL
# From the text: Integrin trafficking is an important mechanism employed by cells to regulate integrin–extracellular matrix interactions, and thus cellular signalling, during processes such as cell migration and invasion. α5β1 integrin is internalized, trafficked to recycling endosomes and then recycled to the plasma membrane[43],[44]. Membrane trafficking pathways influence α5β1’s ability to promote invasion and metastasis[45],[46]. […]
# HEK293 cells (not expressing α5 but endogenously expressing β1 integrin[47],[48] were plated in 6 well plates and at 50–60% confluence were transiently transfected with α5-EGFP plasmid using Lipofectamine2000 transfection reagent (LifeTechnologies). After 48 h from transfection, HEK293 + α5-EGFP cells were assessed to verify integrins expression by flow cytometry (data not shown). α5-EGFP integrin plasmid was a kind gift from Michael Davidson (Addgene plasmid #56423). HEK293 + α5-EGFP cells were treated at 4 °C with fibronectin (10 µg/ml) or the agonist 24 (1 µM) in MEM for 1 hour. Cells exposed to the antagonist 17b (1 µM), before the addition of fibronectin, were pre-incubated with the compound for 20 minutes at 4 °C. […]
# (§3) Specimens were embedded in Mowiol and analyzed using a Nikon C1s confocal laser-scanning microscope, equipped with a Nikon PlanApo 60×, 1.4-NA oil immersion lens. […]
# [5] = Stability in bovine serum (LC-MS); assay type: in vitro ADME
# Protocol: as §1, §2
# HEK293 + α5 cells = assay: Confocal microscopy of FITC-conjugate internalization in HEK293 + α5 cells; assay type: cell-based, human; details: 0.1–1 μM
# Protocol: (§4) In order to visualize the localization of isoxazolines inside the cells and to explore the possibility to use them as shuttles for selective delivery of therapeutic payloads and diagnostics, compound 31 was synthesized conjugating 17b with FITC, as described above. […] In addition, the internalization of compound 31 was concentration-dependent: at a higher concentration (1 μM) it accumulated inside the cells in a greater extent.
# (§5) Figure 5 Confocal microscopy images of HEK293 or HEK293 + α5, HEK293 + αvβ3 and K562 cells treated with compound 31 (Cpd 31). […] In the left column of each panel green (FITC) fluorescence was shown, whereas in right one green and blue (DAPI) signals were merged. […] Scale bar: 30 µm. d) Compound 31 internalization was evaluated according to green fluorescence intensity in the cells and is reported in the graph. […]
# as §3
# (§6) For internalization analysis of ligand 31, the mean fluorescence intensity was related to the background; the relative fluorescence intensity is reported in the graph in Fig. 5.
# HEK293 cells = assay: Confocal microscopy of FITC-conjugate internalization in HEK293 cells not expressing α5; assay type: cell-based, human; details: HEK293 cells that do not express α5 integrin, 0.1–1 μM
# Protocol: as §4, §5, §3, §6
# K562 cells = assay: Confocal microscopy of FITC-conjugate internalization in K562 cells; assay type: cell-based, human
# Protocol: (§7) Figure 5 Confocal microscopy images of HEK293 or HEK293 + α5, HEK293 + αvβ3 and K562 cells treated with compound 31 (Cpd 31). Cells were exposed to compound 31 (0.1–1 μM) or its vehicle for 60 minutes at 4 °C and thereafter cells were moved to 37 °C for 15 minutes to promote integrin internalization and fixed as described in Methods. a) Compound 31, conjugated with FITC was able to enter the cells in α5 integrin-dependent manner: it was internalized in HEK293 + α5 but not in HEK293 cells. Right Panels: HEK293 cells not expressing α5 integrin subunit. Left Panels: HEK293 + α5. b) Concentration-dependent internalization of compound 31 was observed also in K562 cancer cells, endogenously expressing α5β1 integrin. […] In the left column of each panel green (FITC) fluorescence was shown, whereas in right one green and blue (DAPI) signals were merged. Nuclei were counterstained with DAPI. Scale bar: 30 µm. d) Compound 31 internalization was evaluated according to green fluorescence intensity in the cells and is reported in the graph. […]
# as §3, §6
# HEK293 + αvβ3 cells = assay: Confocal microscopy of FITC-conjugate internalization in HEK293 + αvβ3 cells; assay type: cell-based, human; details: HEK293 + αvβ3 cells not expressing α5β1, 0.1–1 μM
# Protocol: as §7, §3, §6
# [6] = K562 cell adhesion to fibronectin
smiles,measurement,setting,value
Cc1onc(CCCc2cn(CCCNC(=O)OC(C)(C)C)nn2)c1C(=O)NCc1ccc(N)cc1 [B],effect on the activity of selected integrins,selected integrins,not active
CC1=C(C(=O)NCc2ccc(N)cc2)C(CCCc2cn(CCCNC(=O)OC(C)(C)C)nn2)N(C(=O)CC(=O)O)O1 (stereo not drawn) [Compound 17b],loss of product,"[1]; acidic treatment (pH=3, HCl)",5%
same,loss of product,[1]; neutral conditions (pH=7),5%
same,decomposition to A,[1]; stress conditions with a large excess of base,few minutes
same,fibronectin-induced ERK1/2 phosphorylation levels,[2],significant concentration-dependent reduction
same,IC50,α5β1 integrin [3],0.0027 ± 0.0004 µM
same,α5β1 behaviour (agonist/antagonist),α5β1 integrin [3]; [6],antagonist
same,IC50,αvβ3 integrin,> 1000 µM
same,effect on fibronectin-induced α5β1 integrin internalization,α5β1 integrin [4],prevented integrin internalization
same,stability in bovine serum,[5],no significant degradation
CC1=C(C(=O)NCc2ccc(N)cc2)C(CCCc2cn(CCCNC(=S)Nc3ccc(-c4c5ccc(=O)cc-5oc5cc(O)ccc45)c(C(=O)O)c3)nn2)N(C(=O)CC(=O)O)O1 (stereo not drawn) [Compound 31],intracellular localization / internalization,HEK293 + α5 cells,localized in the cell cytoplasm
same,internalization,HEK293 cells,not able to enter
same,internalization,K562 cells; 0.1–1 μM,internalized in K562 cells in a concentration-dependent way
same,IC50,α5β1 integrin [3],0.13 ± 0.01 µM
same,α5β1 behaviour (agonist/antagonist),α5β1 integrin [3]; [6],antagonist
same,α5β1 IC50/EC50 (IC50 for antagonists),"α5β1 integrin [3]; K562 cell adhesion to fibronectin, antagonists, also >1000 cells with behaviour not given, mean ± SD",0.13 ± 0.01 µM
same,internalization,HEK293 + αvβ3 cells,not able to be internalized
"CC[C@@]1([C@@H]2O[C@@H]([C@H]3O[C@@](O)(CO)[C@H](C)C[C@@H]3C)C[C@@H]2C)CC[C@H]([C@]2(C)CC[C@]3(C[C@H](O)[C@@H](C)[C@@H]([C@@H](C)[C@@H](OC)[C@H](C)C(=O)O)O3)O2)O1 [monensin, reference compound]",effect on compound 31 internalization,K562 cells; monensin 2 µM for 2 h,significantly inhibited
